For 78 compounds, IC50 results are on record in ChEMBL document CHEMBL3714750, “Aryl sulfonamides” (2008).

The assay addresses T1, C-C chemokine receptor type 9 (Homo sapiens, UniProt P51686).
T1 sequence (P51686 whole entry): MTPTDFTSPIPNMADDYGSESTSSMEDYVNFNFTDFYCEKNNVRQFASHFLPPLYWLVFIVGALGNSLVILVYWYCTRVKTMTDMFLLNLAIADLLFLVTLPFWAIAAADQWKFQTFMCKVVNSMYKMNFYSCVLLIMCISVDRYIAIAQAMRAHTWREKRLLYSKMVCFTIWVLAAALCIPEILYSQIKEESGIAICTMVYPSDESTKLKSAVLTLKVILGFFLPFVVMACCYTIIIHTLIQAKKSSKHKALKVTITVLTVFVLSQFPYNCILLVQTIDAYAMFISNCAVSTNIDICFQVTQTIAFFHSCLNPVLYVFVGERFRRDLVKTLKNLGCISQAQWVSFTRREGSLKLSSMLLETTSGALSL
The assay is described as follows: Antagonist activity against CCR9 in human MOLT4 cells assessed as inhibition of human recombinant TECK-induced calcium response pre-treated before TECK stimulation by Flou-4-AM dye based FLIPR assay. It counts as functional, cell-based, MOLT-4.
On to `Cc1nnc(-c2ccc(S(=O)(=O)Nc3ccc(Cl)cc3C(=O)c3ccccn3)cc2)o1`, for which the IC50 is > 1 µM. With `CC(C)(C)c1ccc(S(=O)(=O)Nc2ccc(Cl)cc2C(=O)c2cccnc2)cc1`, the concentration for half-maximal inhibition (IC50) is < 1 µM. With `Cc1cc(C(=O)c2cc(Cl)ccc2NS(=O)(=O)c2ccc(C(C)(C)C)cc2)cc[n+]1[O-]`, the IC50 is < 1 µM. `O=C(c1ccncc1)c1cc(Cl)ccc1NS(=O)(=O)c1ccc(N2CCOCC2)c(F)c1`: the IC50 was < 1 µM. On to `COc1ccc(S(=O)(=O)Nc2ccc(Cl)cc2C(=O)NCc2ccccc2)cc1`, for which the IC50 was < 1 µM.

Consider `O=C(c1cc[n+]([O-])cc1)c1cc(Cl)ccc1NS(=O)(=O)c1ccc(-c2ccoc2)cc1`, for which the IC50 was < 1 µM. The value for `O=C(c1ccncc1)c1cc(Cl)ccc1NS(=O)(=O)c1ccc(-c2ccccc2)cc1` was < 1 µM.

Turning to `COC(=O)CCc1ccc(S(=O)(=O)Nc2ccc(Cl)cc2C(=O)c2ccc(C)[n+]([O-])c2)cc1`, the IC50 is < 1 µM. In the case of `O=C(c1ccncc1)c1cc(Cl)ccc1NS(=O)(=O)c1ccc(N2CCC2)cc1`, the IC50 was < 1 µM. `Cc1ccc(C(=O)c2cc(Cl)ccc2NS(=O)(=O)c2ccc(C(C)(C)c3cnco3)cc2)cn1`: the IC50 was < 1 µM. As to `CN(C)C(=O)CCc1ccc(S(=O)(=O)Nc2ccc(Cl)cc2C(=O)c2ccncc2)cc1`, the IC50 is > 1 µM. The value for `Cc1ccc(C(=O)c2cc(Cl)ccc2NS(=O)(=O)c2ccc(-c3ocnc3C)cc2)cn1` was < 1 µM; that for `CS(=O)(=O)c1ccc(S(=O)(=O)Nc2ccc(Cl)cc2C(=O)c2ccc(Cl)[n+]([O-])c2)cc1` was < 1 µM; that for `O=C(c1ccncc1)c1cc(Cl)ccc1NS(=O)(=O)c1ccc(N2CCS(=O)(=O)CC2)cc1` was > 1 µM. Consider `CC(C)c1ccc(S(=O)(=O)Nc2ccc(Br)cc2C(=O)c2ccncc2)cc1`, for which the IC50 was < 1 µM.

As for `CC(C)(CO)c1ccc(S(=O)(=O)Nc2ccc(Cl)cc2C(=O)c2ccncc2)cc1`, the IC50 was < 1 µM.

As for `Cc1cc(C(=O)c2cc(Cl)ccc2NS(=O)(=O)c2ccc(C3(C)CCOCC3)cc2)ccn1`, the IC50 is < 1 µM. For the compound `Cn1nncc1C(=O)c1cc(Cl)ccc1NS(=O)(=O)c1ccc(C(C)(C)C)cc1`, the IC50 was < 1 µM. Regarding `COc1ccc(S(=O)(=O)Nc2ccc(Cl)cc2C(=O)c2nccn2C)cc1`, the IC50 was > 1 µM. To `CC(C)(C)c1ccc(S(=O)(=O)Nc2ccc(Br)cc2C(=O)c2ccncc2)cc1` belongs < 1 µM; to `CC(C)(C)c1ccc(S(=O)(=O)Nc2ccc(F)cc2C(=O)c2ccncc2)cc1`, < 1 µM; to `Cn1nc(C(=O)c2cc(Cl)ccc2NS(=O)(=O)c2ccc(C(C)(C)C)cc2)c2ccccc21`, > 1 µM. `Cc1ccc(C(=O)c2cc(Cl)ccc2NS(=O)(=O)c2ccc(C3(C)CCOCC3)cc2)cn1`: the IC50 is < 1 µM. Take `Cc1ccc(C(=O)c2cc(Cl)ccc2NS(=O)(=O)c2ccc(C(C)(C)c3cocn3)cc2)cn1`: the IC50 was < 1 µM.

`O=C(c1ccncc1)c1cc(Cl)ccc1NS(=O)(=O)c1ccc(-c2csnn2)cc1`: the IC50 was < 1 µM. To `O=C(c1ccncc1)c1cc(Cl)ccc1NS(=O)(=O)c1ccc(-c2cncnc2)cc1` belongs > 1 µM; to `CC(C)(c1ccc(S(=O)(=O)Nc2ccc(Cl)cc2C(=O)c2cc[n+]([O-])cc2)cc1)c1ncco1`, < 1 µM. For `CC1(c2ccc(S(=O)(=O)Nc3ccc(Cl)cc3C(=O)c3ccncc3)cc2)CCOCC1`, the IC50 is < 1 µM. To `Cc1cc(C(=O)c2cc(Cl)ccc2NS(=O)(=O)c2ccc(C3(C)CCOCC3)cc2)cc[n+]1[O-]` belongs < 1 µM; to `COc1ccc(S(=O)(=O)Nc2ccc(Cl)cc2C(=O)N2CCCCC2)cc1`, > 1 µM; to `C[C@@H]1CN(c2ccc(S(=O)(=O)Nc3ccc(Cl)cc3C(=O)c3ccncc3)cc2F)C[C@H](C)O1`, < 1 µM. `Cc1cccc(C(=O)c2cc(Cl)ccc2NS(=O)(=O)c2ccc(C(C)(C)C)cc2)n1`: the IC50 is < 1 µM.

As for `Cc1cccc(C(=O)c2cc(Cl)ccc2NS(=O)(=O)c2ccc(C3(C)CCOCC3)cc2)n1`, the IC50 is < 1 µM. Regarding `CC(C)(c1ccc(S(=O)(=O)Nc2ccc(Cl)cc2C(=O)c2cccnc2)cc1)c1ncco1`, the IC50 is < 1 µM. For `CC1(c2ccc(S(=O)(=O)Nc3ccc(Cl)cc3C(=O)c3cc[n+]([O-])cc3)cc2)OCCO1`, the IC50 is < 1 µM. To `CC(C)Oc1ccc(S(=O)(=O)Nc2ccc(Br)cc2C(=O)c2ccncc2)cc1` belongs < 1 µM; to `O=C(c1ccncc1)c1cc(Cl)ccc1NS(=O)(=O)c1ccc(-c2nccs2)cc1`, > 1 µM; to `CC1(c2ccc(S(=O)(=O)Nc3ccc(Cl)cc3C(=O)c3ccncc3)cc2)OCCO1`, < 1 µM.

Take `COc1ccc(S(=O)(=O)Nc2ccc(Br)cc2C(=O)c2ccncc2)cc1`: the IC50 is > 1 µM. The value for `CC(C)(c1ncco1)c1ccccc1S(=O)(=O)Nc1ccc(Cl)cc1C(=O)c1ccncc1` was < 1 µM; that for `O=C(c1ccncc1)c1cc(Cl)ccc1NS(=O)(=O)c1ccc(-c2ccoc2)cc1` was < 1 µM; that for `COc1ccc(S(=O)(=O)Nc2ccc(Cl)cc2C(=O)N2CCNCC2)cc1` was > 1 µM.

For the compound `CC(C)(c1ccc(S(=O)(=O)Nc2ccc(Cl)cc2C(=O)c2ccc[n+]([O-])c2)cc1)c1ncco1`, the concentration for half-maximal inhibition (IC50) was < 1 µM.

Take `O=C(c1cccnc1)c1cc(F)c(F)cc1NS(=O)(=O)c1ccc(N2CCOCC2)cc1`: the IC50 was < 1 µM. To `C[C@@H]1CN(c2ccc(S(=O)(=O)Nc3ccc(Cl)cc3C(=O)c3ccc[n+]([O-])c3)cc2)C[C@H](C)O1` belongs < 1 µM; to `CC1(c2ccc(S(=O)(=O)Nc3ccc(Cl)cc3C(=O)c3cc[n+]([O-])cc3)cc2)CCOCC1`, < 1 µM. Regarding `CCC(C)(C)c1ccc(S(=O)(=O)Nc2ccc(Cl)cc2C(=O)c2ccncc2)cc1`, the IC50 is < 1 µM. Turning to `Cc1ccncc1C(=O)c1cc(Cl)ccc1NS(=O)(=O)c1ccc(-c2cnco2)cc1`, the IC50 is < 1 µM. `O=C(c1ccncc1)c1cc(Cl)ccc1NS(=O)(=O)c1ccc(-c2ccsc2)cc1`: the 50% inhibitory concentration (IC50) was < 1 µM. Regarding `CC(C)(C)c1ccc(S(=O)(=O)Nc2ccc(Cl)cc2C(=O)c2ccccn2)cc1`, the IC50 was < 1 µM. The value for `Cc1cccc(C(=O)c2cc(Cl)ccc2NS(=O)(=O)c2ccc(-c3cnco3)cc2)n1` was < 1 µM; that for `O=C(c1ccncc1)c1cc(Cl)ccc1NS(=O)(=O)c1ccc(-c2ncco2)cc1` was < 1 µM. As for `Cc1cc(C(=O)c2cc(Cl)ccc2NS(=O)(=O)c2ccc(OC(C)C)cc2)ccn1`, the IC50 was < 1 µM. In the case of `CCc1ccc(S(=O)(=O)Nc2ccc(Cl)cc2C(=O)c2ccncc2)cc1`, the IC50 is < 1 µM. Consider `Cc1ccc(C(=O)c2cc(Cl)ccc2NS(=O)(=O)c2ccc(OC(C)C)cc2)cn1`, for which the IC50 is < 1 µM.

As for `Cc1ncccc1C(=O)c1cc(Cl)ccc1NS(=O)(=O)c1ccc(S(C)(=O)=O)cc1`, the IC50 is < 1 µM. Turning to `COC(=O)CCc1ccc(S(=O)(=O)Nc2ccc(Cl)cc2C(=O)c2cccnc2)cc1`, the IC50 is < 1 µM. For `Cc1ncccc1C(=O)c1cc(Cl)ccc1NS(=O)(=O)c1ccc(C(C)(C)C)cc1`, the IC50 is < 1 µM. Take `O=C(c1ccncc1)c1cc(Cl)ccc1NS(=O)(=O)c1ccc(N2CCNCC2)cc1`: the IC50 is > 1 µM. Turning to `Cc1ccc(C(=O)c2cc(Cl)ccc2NS(=O)(=O)c2ccc(-c3nnc(C)o3)cc2)cn1`, the IC50 is > 1 µM. `CC1(c2ccc(S(=O)(=O)Nc3ccc(Cl)cc3C(=O)c3cccnc3)cc2)CCOCC1`: the concentration for half-maximal inhibition (IC50) is < 1 µM. For `CC(C)(c1ccc(S(=O)(=O)Nc2ccc(Cl)cc2C(=O)c2ccncc2)cc1)c1cnco1`, the IC50 was < 1 µM. Turning to `CC(C)Sc1ccc(S(=O)(=O)Nc2ccc(Cl)cc2C(=O)c2ccncc2)cc1`, the IC50 is < 1 µM.

In the case of `CC(C)(c1ccc(S(=O)(=O)Nc2ccc(Cl)cc2C(=O)c2ccncc2)cc1)c1cocn1`, the half-maximal inhibitory concentration (IC50) is < 1 µM. As to `O=C(c1cccnc1)c1cc(Cl)ccc1NS(=O)(=O)c1ccc(N2CCOCC2)cc1`, the IC50 was < 1 µM. With `CC(C)Oc1ccc(S(=O)(=O)Nc2ccc(Cl)cc2C(=O)c2ccncc2)cc1`, the IC50 is < 1 µM.

Consider `Cc1cc(C(=O)c2cc(Cl)ccc2NS(=O)(=O)c2ccc(C(C)(C)C)cc2)ccn1`, for which the IC50 is < 1 µM. As to `Cc1ncccc1C(=O)c1cc(Cl)ccc1NS(=O)(=O)c1ccc(C2(C)CCOCC2)cc1`, the IC50 is < 1 µM. `CC(=O)N1CCN(c2ccc(S(=O)(=O)Nc3ccc(Cl)cc3C(=O)c3ccncc3)cc2)CC1`: the IC50 was > 1 µM. `Cc1cc(C(=O)c2cc(Cl)ccc2NS(=O)(=O)c2ccc(OC(C)C)cc2)cc[n+]1[O-]`: the IC50 is < 1 µM. On to `O=C(c1ccncc1)c1cc(Cl)ccc1NS(=O)(=O)c1ccc(N2CCSCC2)cc1`, for which the IC50 was < 1 µM.

In the case of `C[C@@H]1CN(c2ccc(S(=O)(=O)Nc3ccc(Cl)cc3C(=O)c3cc[n+]([O-])cc3)cc2F)C[C@H](C)O1`, the IC50 is < 1 µM.

For the compound `O=C(c1ccncc1)c1cc(Cl)ccc1NS(=O)(=O)c1ccc(CCc2ncco2)cc1`, the IC50 is < 1 µM. Take `O=C(c1cc[n+]([O-])cc1)c1cc(Cl)ccc1NS(=O)(=O)c1ccc(N2CCOCC2)cc1`: the IC50 is < 1 µM.

On to `C[C@@H]1CN(c2ccc(S(=O)(=O)Nc3ccc(Cl)cc3C(=O)c3ccncc3)cc2)C[C@H](C)O1`, for which the IC50 is < 1 µM. For the compound `CC(C)(C)c1ccc(S(=O)(=O)Nc2ccc(Cl)cc2C(=O)c2cc[n+]([O-])c(Cl)c2)cc1`, the IC50 was < 1 µM. To `CC(=O)c1ccc(S(=O)(=O)Nc2ccc(Cl)cc2C(=O)c2ccnc(C)c2)cc1` belongs > 1 µM.

Regarding `Cc1noc(C)c1-c1ccc(S(=O)(=O)Nc2ccc(Cl)cc2C(=O)c2ccncc2)cc1`, the IC50 is < 1 µM.

One may read the IC50 as the midpoint of a concentration-inhibition curve.
